Assay results reported in PubChem BioAssay (NCI).
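Five concentrations, 48 hours, 96-well plates. TGI: total growth inhibition.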

Key:
Assay in all cases: growth of human tumour cells (NCI), 48 h
[1] = tested on: A549 NSCLC
[2] = tested on: ACHN renal
[3] = tested on: CAKI-1 renal
[4] = tested on: CCRF-CEM leukemia
[5] = tested on: COLO 205 colon
[6] = tested on: DLD-1 colon
[7] = tested on: DMS 114 small cell lung
[8] = tested on: DMS 273 small cell lung
[9] = tested on: EKVX NSCLC
[10] = tested on: HCC-2998 colon
[11] = tested on: HCT-116 colon
[12] = tested on: HCT-15 colon
[13] = tested on: HOP-18 NSCLC
[14] = tested on: HOP-62 NSCLC
[15] = tested on: HOP-92 NSCLC
[16] = tested on: IGROV1 ovarian
[17] = tested on: K-562 leukemia
[18] = tested on: KM12 colon
[19] = tested on: KM20L2 colon
[20] = tested on: LOX IMVI melanoma
[21] = tested on: LXFL 529 NSCLC
[22] = tested on: M19-MEL melanoma
[23] = tested on: MALME-3M melanoma
[24] = tested on: MOLT-4 leukemia
[25] = tested on: NCI-H226 lung
[26] = tested on: NCI-H23 lung
[27] = tested on: NCI-H522 lung
[28] = tested on: OVCAR-3 ovarian
[29] = tested on: OVCAR-4 ovarian
[30] = tested on: OVCAR-5 ovarian
[31] = tested on: OVCAR-8 ovarian
[32] = tested on: RPMI-8226 leukemia
[33] = tested on: RXF 393 renal
[34] = tested on: SF-268 CNS
[35] = tested on: SF-295 CNS
[36] = tested on: SF-539 CNS
[37] = tested on: SK-MEL-2 melanoma
[38] = tested on: SK-MEL-28 melanoma
[39] = tested on: SK-MEL-5 melanoma
[40] = tested on: SK-OV-3 ovarian
[41] = tested on: SN12C renal
[42] = tested on: SNB-19 CNS
[43] = tested on: SNB-78 CNS
[44] = tested on: SR leukemia
[45] = tested on: SW-620 colon
[46] = tested on: TK-10 renal
[47] = tested on: U251 CNS
[48] = tested on: UACC-62 melanoma
[49] = tested on: UO-31 renal
[50] = tested on: XF 498 CNS
[51] = tested on: 786-0 renal
[52] = tested on: A498 renal
[53] = tested on: HL-60(TB) leukemia
[54] = tested on: HT29 colon
[55] = tested on: M14 melanoma
[56] = tested on: NCI-H460 lung
[57] = tested on: SNB-75 CNS
[58] = tested on: UACC-257 melanoma

Measured: TGI

N#CCCN(CCC#N)c1ccc(/C=C2\N=C(c3cc([N+](=O)[O-])ccc3Cl)N(S(=O)(=O)c3ccccc3)C2=O)cc1
not listed: [51] | [52] | [53] | [54] | [55] | [56] | [57] | [58]
> 100 µM: all other assays above

CCN(CC)CCN1CCc2c([nH]c3ccccc23)C1c1cccnc1 (stereo not drawn)
not listed: [5] | [23] | [25] | [33] | [37]
> 100 µM: all other assays above

Cc1cc(C)c(-n2c(-c3ccccc3)cs/c2=N\N=C2C=C(C(C)(C)C)C(=O)C(C(C)(C)C)=C2)c(C)c1
94.6 µM: [57]
not listed: [49] | [52]
> 100 µM: all other assays above

CCc1cccc(C)c1NC(=O)CCc1nnc(SC)o1
not listed: [25]
> 100 µM: all other assays above

Cc1c(Cl)ccc2c1NC(=O)C2(O)CC(=O)c1cccc2ccccc12 (stereo not drawn)
71.3 µM: [29]
37.6 µM: [22]
55.8 µM: [7]
63.1 µM: [44]
42.3 µM: [53]
not listed: [15]
> 100 µM: all other assays above
